Data: patent publication US7598293B2, “Compounds and their use in medicine, process for their preparation and pharmaceutical compositions containing them” (Dr. Reddy's Laboratories, Inc., priority 2001, dated 2009)
Where a name gives a salt, the structure may show the parent alone. One block for each molecule: values may come before it.

Tests used:
[1] = system: hypercholesterolemic Sprague Dawley rats; experiment: Plasma triglyceride and cholesterol lowering activity in hypercholesterolemic rat models; type: in vivo; details: 1 mg/kg oral, results after 3 days
Experimental: b) Plasma triglyceride and Cholesterol lowering activity in hypercholesterolemic rat models Male Sprague Dawley rats (NIN stock) were bred in DRF animal house. Animals were maintained under 12 hour light and dark cycle at 25±1° C. Rats of 180-200 gram body weight range were used for the experiment. Animals are made hypercholesterolemic by feeding 2% cholesterol and 1% sodium cholate mixed with standard laboratory chow [National Institute of Nutrition (NIN), Hyderabad, India] for 6 days. Throughout the experimental period the animals were maintained on the same diet (Petit, D., Bonnefis, M. T., Rey, C and Infante, R. Effects of ciprofibrate on liver lipids and lipoprotein synthesis in normo- and hyperlipidemic rats. Atherosclerosis. 1988. 74: 215-225).
The test compounds can be administered orally at a dose 0.1 to 30 mg/kg/day for 3 days. Control group was treated with vehicle alone (0.25% Carboxymethylcellulose; dose 10 ml/kg).
The blood samples can be collected in fed state 1 hour after drug administration on 0 and 3 day of compound treatment. The blood can be collected from the retro-orbital sinus through heparinised capillary in EDTA containing tubes. After centrifugation, plasma sample will be separated for total cholesterol, HDL and triglyceride estimations. Measurement of plasma triglyceride, total cholesterol and HDL were done using commercial kits (Dr. Reddy's Laboratory, Diagnostic Division, India). LDL and VLDL cholesterol can be calculated from the data obtained for total cholesterol, HDL and triglyceride. The reductions of various parameters examined are calculated according to the formula.
(§1) 1. Percent reduction in Blood sugar/triglycerides/total cholesterol will be calculated according to the formula:
(§2) [formula] • OC=Zero day control group value • OT=Zero day treated group value • TC=Test day control group value • TT=Test day treated group value
2. LDL and VLDL, cholesterol levels will be calculated according to the formula:
[formula] VLDL cholesterol in mg/dl=[Total cholesterol-HDL cholesterol-LDL cholesterol]mg/dl.

hPPARα = target: T1, hPPARα (Homo sapiens, UniProt Q07869); experiment: Determination of hPPARα activity (GAL4 luciferase reporter, transfected HEK-293 cells); type: cell-based; details: compound concentration 50 μM
T1 construct: expressed in transfected cells; host or cells: HEK-293
T1 sequence (Q07869 239-466 limits assumed): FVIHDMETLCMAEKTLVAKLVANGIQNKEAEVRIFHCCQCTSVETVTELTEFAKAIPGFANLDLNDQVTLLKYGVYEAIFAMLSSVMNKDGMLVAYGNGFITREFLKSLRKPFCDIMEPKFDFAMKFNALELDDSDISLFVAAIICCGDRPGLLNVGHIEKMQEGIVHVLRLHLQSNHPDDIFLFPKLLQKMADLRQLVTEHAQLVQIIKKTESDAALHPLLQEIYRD
Experimental: a) Determination of hPPARα activity Ligand binding domain of hPPARα was fused to DNA binding domain of Yeast transcription factor Gal 4 in eucaryotic expression vector. Using superfect (Qiagen, Germany) as transfecting reagent HEK-293 cells are transfected with this plasmid and a reporter plasmid harboring the luciferase gene driven by a GAL4 specific promoter. Compound can be added at different concentrations after 42 hrs of transfection and incubated overnight. Luciferase activity as a function of compound binding/activation capacity of PPARα will be measured using Packard Luclite kit (Packard, USA) in Top Count (Ivan Sadowski, Brendan Bell, Peter Broag and Melvyn Hollis. Gene. 1992. 118: 137-141; Superfect Transfection Reagent Handbook. February 1997. Qiagen, Germany).

hPPARγ1 = target: T2, hPPARγ1 (Homo sapiens, UniProt P37231); experiment: Determination of hPPARγ activity (GAL4 luciferase reporter, transfected HEK-293 cells); type: cell-based; details: compound concentration 1 μM
T2 construct: expressed in transfected cells; host or cells: HEK-293
T2 sequence (P37231 238-503 limits assumed): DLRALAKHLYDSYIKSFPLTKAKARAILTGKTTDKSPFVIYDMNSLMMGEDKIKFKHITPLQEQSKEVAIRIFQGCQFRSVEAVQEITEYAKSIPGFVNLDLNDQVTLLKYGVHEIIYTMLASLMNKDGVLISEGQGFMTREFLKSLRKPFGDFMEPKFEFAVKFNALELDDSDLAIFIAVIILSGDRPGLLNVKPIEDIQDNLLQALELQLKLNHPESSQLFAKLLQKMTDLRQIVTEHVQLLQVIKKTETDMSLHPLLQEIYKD
Experimental: b) Determination of hPPARγ activity Ligand binding domain of hPPARγ1 is fused to DNA binding domain of Yeast transcription factor GAL4 in eucaryotic expression vector. Using lipofectamine (Gibco BRL, USA) as transfecting reagent HEK-293 cells are transfected with this plasmid and a reporter plasmid harboring the luciferase gene driven by a GAL4 specific promoter. Compound can be added at 1 μM concentration after 48 hrs of transfection and incubated overnight. Luciferase activity as a function of drug binding/activation capacity of PPARγ1 will be measured using Packard Luclite kit (Packard, USA) in Packard Top Count (Ivan Sadowski, Brendan Bell, Peter Broag and Melvyn Hollis. Gene. 1992. 118: 137-141; Guide to Eukaryotic Transfections with Cationic Lipid Reagents. Life Technologies, GIBCO BRL, USA).

C57BL/KsJ-db/db mice = experiment: Efficacy in genetic models: blood sugar and triglyceride lowering in db/db mice; type: in vivo, mouse; details: 3 mg/kg oral, results after 6 days
Excerpt: a) Efficacy in Genetic Models Mutation in colonies of laboratory animals and different sensitivities to dietary regimens has made the development of animal models with non-insulin dependent diabetes and hyperlipidemia associated with obesity and insulin resistance possible. Genetic models such as db/db and ob/ob (Diabetes, (1982) 31(1): 1-6) mice and zucker fa/fa rats have been developed by the various laboratories for understanding the pathophysiology of disease and testing the efficacy of new antidiabetic compounds (Diabetes, (1983) 32: 830-838; Annu. Rep. Sankyo Res. Lab. (1994). 46: 1-57). The homozygous animals, C57 BL/KsJ-db/db mice developed by Jackson Laboratory, US, are obese, hyperglycemic, hyperinsulinemic and insulin resistant (J. Clin. Invest., (1990) 85: 962-967), whereas heterozygous are lean and normoglycemic. In db/db model, mouse progressively develops insulinopenia with age, a feature commonly observed in late stages of human type II diabetes when blood sugar levels are insufficiently controlled. The state of pancreas and its course vary according to the models. Since this model resembles that of type II diabetes mellitus, the compounds of the present invention will be tested for blood sugar and triglycerides lowering activities.
Male C57BL/KsJ-db/db mice of 8 to 14 weeks age, having body weight range of 35 to 60 grams, bred at Dr. Reddy's Research Foundation (DRF) animal house, were used in the experiment. The mice are provided with standard feed (National Institute of Nutrition (NIN), Hyderabad, India) and acidified water, ad libitum. The animals having more than 350 mg/dl blood sugar will be used for testing. The number of animals in each group will be 4.
Test compounds are suspended on 0.25% carboxymethyl cellulose and administered to test group at a dose of 0.1 mg to 30 mg/kg through oral gavage daily for 6 days. The control group receives vehicle (dose 10 ml/kg). On 6th day the blood samples will be collected one hour after administration of test compounds/vehicle for assessing the biological activity.
The random blood sugar and triglyceride levels can be measured by collecting blood (100 μl) through orbital sinus, using heparinised capillary in tubes containing EDTA which was centrifuged to obtain plasma. The plasma glucose and triglyceride levels can be measured spectrometrically, by glucose oxidase and glycerol-3-PO4 oxidase/peroxidase enzyme (Dr. Reddy's Lab. Diagnostic Division Kits, Hyderabad, India) methods respectively.
The blood sugar and triglycerides lowering activities of the test compound are calculated according to the formula.
as §1, §2

SMILES: CCOC(Cc1ccc(NC/C=C/c2ccc(OS(C)(=O)=O)cc2)cc1)C(=O)O (stereo in doubt) [Example 25, (S)-2-Ethoxy-3-{4-[(E)-3-(4-methylsulfonyloxyphenyl)-2-prope-nylamino]phenyl}propionic acid]
- melting point: 156 to 158 °C

SMILES: CCOC(=O)C(Cc1ccc(NC(=O)CCc2ccc(OS(C)(=O)=O)cc2)cc1)OCC (centres unmarked) [Example 33, Ethyl 2-ethoxy-3-[4-(4-methylsulfonyloxyphenethylcarboxamido)phenyl]-propionate]
- melting point: 90 to 92 °C

SMILES: CO[C@@H](Cc1ccc(NC/C=C/c2ccc(OS(C)(=O)=O)cc2)cc1)C(=O)O [Example 43, (S)-2-Methoxy-3-[4-{(E)-3-(4-methylsulfonyloxyphenyl)-2-propenylamino}phenyl]propionic acid]
- Increase in High Density Lipoprotein (%) [1]: 77%
- Reduction in Total Cholesterol (%) [1]: 53%
- Triglyceride Lowering (%) [1]: 55%
- Reduction in Low Density Lipoprotein (%) ([1]; LDL calculated from total cholesterol, HDL and triglyceride): 56%

SMILES: CCOC(Cc1ccc(NC(=O)/C=C/c2ccc(OS(C)(=O)=O)cc2)cc1)C(=O)O (centres unmarked) [Example 32, 2-Ethoxy-3-{4-[(E)-2-(4-methylsulfonyloxyvhenyl)-1-ethenylcarboxamido]-phenyl}propionic acid]
- melting point: 178 to 180 °C

SMILES: CCOC(=O)[C@H](Cc1ccc(NC/C=C/c2ccc(OS(C)(=O)=O)cc2)cc1)OC [Example 42, (S) Ethyl 2-methoxy-3-[4-{(E)-3-(4-methylsulfonyloxyphenyl)-2-propenylamino}phenyl]propionate]
- Reduction in Blood Glucose Level (%) (C57BL/KsJ-db/db mice): 63%
- Triglyceride Lowering (%) (C57BL/KsJ-db/db mice): 56%

SMILES: CCOC(Cc1ccc(NCCCc2ccc(OS(=O)(=O)c3ccc(C)cc3)cc2)cc1)C(=O)O (centres unmarked) (hydrate or solvate) [Example 19, 2-ethoxy-3-[4-{3-(4-(toluene-4-sulfonyloxy)phenyl)propylamino}phenyl]propionate]
- melting point: 98 to 100 °C

SMILES: CCOC(Cc1cccc(NCCCc2ccc(OS(C)(=O)=O)cc2)c1)C(=O)O (centres unmarked) [Example 39, 2-Ethoxy-3-[3-{3-(4-methanesulfonyloxyphenyl)propylamino}phenyl]propionic acid Arginine salt]
- Reduction in Blood Glucose Level (%) (C57BL/KsJ-db/db mice): 56%
- Triglyceride Lowering (%) (C57BL/KsJ-db/db mice): 36%

SMILES: CCOC(Cc1ccc(NC/C=C/c2ccc(OS(C)(=O)=O)cc2)cc1)C(=O)O (centres unmarked) [Example 27, 2-Ethoxy-3-{4-[(E)-3-(4-methylsulfonyloxyphenyl)-2-propenylamino]phenyl}propionic acid]
- PPARα (hPPARα): 8.5
- PPARγ (hPPARγ1): 0.8

SMILES: CO[C@@H](Cc1ccc(NC/C=C/c2ccc(OS(C)(=O)=O)cc2)cc1)C(=O)O (hydrate or solvate) [Example 43, (S)-2-Methoxy-3-[4-{(E)-3-(4-methylsulfonyloxyphenyl)-2-propenylamino}phenyl]propionic acid]
- melting point: 116 to 118 °C

Results, then the molecule that gave them:

- melting point: 120 to 122 °C
SMILES: CCOC(Cc1ccc(NCCCc2ccc(OS(C)(=O)=O)cc2)cc1)C(=O)O (centres unmarked) (hydrate or solvate) [Example 15, 2-Ethoxy-3-[4-{3-(4-methanesulfonyloxyphenyl)propylamino}phenyl]propionic acid]

- melting point: 164 to 166 °C
SMILES: CCOC(Cc1ccc(NC(=O)CCc2ccc(OS(C)(=O)=O)cc2)cc1)C(=O)O (centres unmarked) [Example 34]

- PPARα (hPPARα): 6.1
- PPARγ (hPPARγ1): 0.7
SMILES: CCOC(Cc1ccc(NCCCc2ccc(OS(C)(=O)=O)cc2)cc1)C(=O)O (centres unmarked) [Example 15, 2-Ethoxy-3-[4-{3-(4-methanesulfonyloxyphenyl)propylamino}phenyl]propionic acid]

- melting point: 143 to 145 °C
SMILES: CC(C)OC(Cc1ccc(NCCCc2ccc(OS(C)(=O)=O)cc2)cc1)C(=O)O (centres unmarked) (hydrate or solvate) [Example 21, 2-Isopropoxy-3-[4-{3-(4-methanesulfonyloxyphenyl)propylamino}phenyl]propionic acid]

- PPARα (hPPARα): 9.4
- PPARγ (hPPARγ1): 0.7
- melting point: 90 to 92 °C
SMILES: CO[C@@H](Cc1ccc(NCCCc2ccc(OS(C)(=O)=O)cc2)cc1)C(=O)O [Example 14, (S)-2-Methoxy-3-[4-{3-(4-methanesulfonyloxyphenyl)propylamino}phenyl]propionic acid]
